Data taken from US11254904B2, “Culture material and use thereof” (MITSUI CHEMICALS, INC., priority 2019, dated 2022).
Counter-ions that a name gives are not always drawn.

Key:
[1] = Evaluation of drug sorption (drug residual rate); format: physicochemical; settings: 10 μmol/L drug solution, 0.5 ml per well, 23° C., 2 days; average of three wells
Procedure: Thereafter, the drug solutions were recovered. The concentrations of the recovered drug solutions were measured by a fluorescence analysis method or LC/MS. The drug residual rate, which was the concentration of the measured recovered drug solution with respect to the concentration of the drug solution before added to the vessel, was calculated. The average value of the drug residual rate in three wells was given. For the drugs 1 to 3 for evaluation, concentration analysis was performed by a fluorescence analysis method.

[2] = Evaluation of drug sorption (drug residual rate); format: physicochemical; settings: 10 μmol/L drug solution, 0.5 ml per well, 23° C., 2 days; average of three wells; remark: listed apart in the source
Procedure: Thereafter, the drug solutions were recovered. The concentrations of the recovered drug solutions were measured by a fluorescence analysis method or LC/MS. The drug residual rate, which was the concentration of the measured recovered drug solution with respect to the concentration of the drug solution before added to the vessel, was calculated. The average value of the drug residual rate in three wells was given. For the drugs 1 to 3 for evaluation, concentration analysis was performed by a fluorescence analysis method. For the drugs 4 to 8 for evaluation, concentration analysis was performed by LC/MS. <Fluorescence Analysis Conditions> • Evaluation apparatus: FP-6600 (spectrofluorometer, manufactured by JASCO Corporation) • Used cell: Micro cell made of quartz • Bandwidth: excitation side: 5 nm, fluorescence side: 6 nm • Sensitivity (PMT voltage): 400 V • Excitation wavelength: rhodamine B 555 nm <LC/MS Conditions> • Apparatus: Acquity UPLC I-class system/TQ-S micro(water) • Ionization method: electrospray ionization (ESI), positive and negative ion detection A drug sorption test was performed on the 24-well TCPS culture vessel (manufactured by Corning Incorporated, made of polystyrene (PS)) used in Comparative Example 4 and the 24-well PDMS culture vessel (product name: […] (trademark) model number: […]

| Compound | drug residual rate, 4-methyl-1-pentene Polymer Vessel (Example 11) [1] | drug residual rate, PDMS Vessel (Comparative Example 8) [2] | drug residual rate, PS Vessel (Comparative Example 7) [2] |
| --- | --- | --- | --- |
| rhodamine 123 | 99% | 58% | 79% |
| Cc1oncc1C(=O)Nc1ccc(C(F)(F)F)cc1 [Leflunomide, leflunomide] | 68% | 2% | 70% |
| CCN(CC)c1ccc2c(-c3ccccc3C(=O)O)c3ccc(=[N+](CC)CC)cc-3oc2c1.[Cl-] [Rhodamine B, rhodamine B] | 98% | 2% | 90% |
| CC(C)NCC(O)c1ccc(O)c(O)c1 (stereo not drawn) [Isoproterenol Hydrochloride, isoproterenol hydrochloride] | 63% | 1% | 65% |
| Clc1ccccc1CN1CCc2sccc2C1 [Ticlopidine Hydrochloride, ticlopidine hydrochloride] | 64% | 1% | 67% |
